PubChem BioAssay (NCI)
Several values for one entry are separate records, joined by “and”; a condition that tells them apart may be missing. Identical values can stand only once.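 Each compound was tested at five concentrations against cells in 96-well plates for 48 hours. At the GI50, growth is halved. TGI is the concentration that stops growth completely.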

Legend:
Assay in all cases: NCI tumour cell line growth inhibition, 48 h
COLO 205 colon = system: COLO 205 colon
SR leukemia = system: SR leukemia
LOX IMVI melanoma = system: LOX IMVI melanoma
OVCAR-3 ovarian = system: OVCAR-3 ovarian
A498 renal = system: A498 renal
SN12C renal = system: SN12C renal
SNB-19 CNS = system: SNB-19 CNS
NCI-H23 lung = system: NCI-H23 lung
IGROV1 ovarian = system: IGROV1 ovarian
HCT-15 colon = system: HCT-15 colon

| Compound | GI50 (COLO 205 colon) | TGI (COLO 205 colon) | TGI (SR leukemia) | GI50 (LOX IMVI melanoma) [µM] | TGI (LOX IMVI melanoma) | GI50 (OVCAR-3 ovarian) | TGI (OVCAR-3 ovarian) | TGI (A498 renal) | TGI (SN12C renal) | GI50 (SNB-19 CNS) [µM] | TGI (SNB-19 CNS) | GI50 (NCI-H23 lung) [µM] | TGI (NCI-H23 lung) | GI50 (IGROV1 ovarian) | TGI (IGROV1 ovarian) | GI50 (HCT-15 colon) [µM] | TGI (HCT-15 colon) | GI50 (SR leukemia) | GI50 (SN12C renal) |
| --- | --- | --- | --- | --- | --- | --- | --- | --- | --- | --- | --- | --- | --- | --- | --- | --- | --- | --- | --- |
| CCCCCCCCCCC1OC([C@@H](O)CC[C@H](O)C2CC[C@@H](CCCCCCCC(O)CC3=CC(C)OC3=O)O2)CCC1O (some centres not stated) | 5.47 µM | > 19.8 µM | 16.5 µM | 1.71 | > 12.5 µM | 1.69 µM | > 23.5 µM | > 25 µM | > 25 µM | 2.9 | > 25 µM | 1.35 | > 25 µM | 10.6 µM | > 25 µM | 7.58 | > 25 µM | – | – |
| CN(C)CCCn1nc(N)c2nc3cc(Cl)ccc3nc21 | – | > 100 µM | > 100 µM | – | > 100 µM | – | > 100 µM | > 100 µM | > 100 µM | – | > 100 µM | – | > 100 µM | – | 94.8 µM | – | > 100 µM | – | – |
| CCOC(=O)C(Cc1cccn1C(=O)OC(C)(C)C)[N+](=O)[O-] (configuration not stated) | – | 41.3 µM | 45 µM | – | 32.1 µM | – | 98.2 µM | 40.6 µM | 62.9 µM | – | 75.5 µM | – | > 100 µM | – | 43.3 µM | – | 62.3 µM | – | – |
| CC1(C)C2CC(=O)C1(C)C(OCc1ccccc1)C2 (configuration not stated) | – | 90.6 µM | 81.1 µM | – | 68.4 µM | – | > 100 µM | > 100 µM | > 100 µM | – | > 100 µM | – | > 100 µM | – | > 100 µM | – | > 100 µM | – | – |
| C=C1C(=O)O[C@@H]2C[C@]3(C)CC[C@]4(C)[C@H](CC[C@@H]5[C@@]6(C)CCC(=O)C(C)(C)[C@@H]6CC[C@]54C)[C@H]3[C@H]12 | – | 21.6 µM | 36.5 µM | – | 29.6 µM | – | 35.5 µM | 35.3 µM | 36.4 µM | – | > 60.6 µM | – | 57.3 µM | – | 39.2 µM | – | 28.1 µM | – | – |
| c1c[nH]c(C23C4C5C6C4C2C6C53)n1 (configuration not stated) | – | > 100 µM | > 100 µM | – | > 100 µM | – | > 100 µM | > 100 µM | > 100 µM | – | > 100 µM | – | > 100 µM | – | > 100 µM | – | > 100 µM | – | – |
| CC(C)C(/C=C/c1ccc(Cl)c(Cl)c1)=N\NC(=O)N/N=C(/C=C/c1ccc(Cl)c(Cl)c1)C(C)C | – | > 100 µM | > 100 µM | – | > 100 µM | – | > 100 µM | > 100 µM | > 100 µM | – | > 100 µM | – | > 100 µM | – | > 100 µM | – | > 100 µM | – | – |
| O=c1c(=O)c2c(Br)sc(Br)c2c1=O | – | 38.6 µM | 44.2 µM | – | 36.4 µM | – | 35.2 µM | > 100 µM | 31.6 µM | – | > 100 µM | – | 40.6 µM | – | 34.7 µM | – | 40.1 µM | – | – |
| Nc1nn2c(nc(N)c3c(N)[nH]nc32)c1N=Nc1ccc(Br)cc1 | – | > 100 µM | > 100 µM | – | 22.6 µM | – | > 78 µM | > 100 µM | 56.7 µM | – | > 92.8 µM | – | > 7.37 µM | – | > 100 µM | – | > 100 µM | – | – |
| CCCCON1C[C@H](OC(C)=O)C(OC(C)=O)[C@H](OC(C)=O)C1 (some centres not stated) | – | > 100 µM | > 100 µM | – | > 100 µM | – | > 100 µM | > 100 µM | > 100 µM | – | > 100 µM | – | > 100 µM | – | > 100 µM | – | > 100 µM | – | – |
| CC1=C(C(=O)c2ccccc2)C23C(=O)N(c4ccccc4)C(=O)C2=C(O)C=CC3(O)N1 (configuration not stated) | – | > 100 µM | 46.3 µM | – | 61.1 µM | – | 58.9 µM | > 100 µM | > 100 µM | – | > 100 µM | – | > 100 µM | – | 51.9 µM | – | > 100 µM | – | – |
| S=C(c1c[nH]c2ccccc12)N1CCN(Cc2ccccc2)CC1 | – | 31 µM | 47.9 µM | – | 29.2 µM | – | 29.4 µM | 37.3 µM | 30.1 µM | – | 35.5 µM | – | 42.8 µM | – | 26.2 µM | – | 28.1 µM | – | – |
| CC1=Nc2sc3c(c2C2=NCCN12)CCCC3 | – | 79.1 µM | 65.2 µM | – | 36.8 µM | – | 66.8 µM | 90.6 µM | 69.6 µM | – | > 100 µM | – | 46.3 µM | – | 60.7 µM | – | > 100 µM | – | – |
| CCCCCCCCCCCCCCCCOC[C@@H](COC(c1ccccc1)(c1ccccc1)c1ccccc1)O[P+](=S)OC (some centres not stated) | – | 38.6 µM | 5.46 µM | – | 11.3 µM | – | 31.8 µM | 26.1 µM | 21.8 µM | – | 21.3 µM | – | 23.7 µM | – | 36 µM | – | 22.4 µM | – | – |
| COc1ccc(N2C(=O)C3c4[nH]c5ccc(F)cc5c4C4CCC(c5ccccc5)CC4C3C2=O)cc1 (configuration not stated) | – | > 100 µM | 36.1 µM | – | > 100 µM | – | > 100 µM | 34.3 µM | > 100 µM | – | 27.9 µM | – | 44.5 µM | – | 56.2 µM | – | > 100 µM | – | – |
| O=C1CCCCCCCCCCC1CN1CCCCC1 (configuration not stated) | – | > 100 µM | > 100 µM | – | > 100 µM | – | > 100 µM | > 100 µM | > 100 µM | – | > 100 µM | – | > 100 µM | – | > 100 µM | – | > 100 µM | – | – |
| CC1OC(OC2C(OC(=O)[C@]34CCC(C)(C)C[C@H]3C3=CC[C@@H]5[C@@]6(C)CC[C@H](OC7OC(C(=O)O)C(O)C(OC8OCC(O)C(O)C8O)C7O)C(C)(C)[C@@H]6CC[C@@]5(C)[C@]3(C)CC4)OCC(O)C2O)C(O)C(OC2OCC(O)C(O)C2O)C1OC1OCC(O)C(OC2OCC(O)C(O)C2O)C1O (some centres not stated) | 1.8 µM and 7.67 µM | 3.63 µM and 20.4 µM | 8.95 µM and 26.8 µM | – | 26.3 µM and 35.5 µM | 13 µM and 35 µM | 50.4 µM and > 100 µM | 4.79 µM and 8.63 µM | 7.2 µM and 21.6 µM | – | 23.2 µM and 44.2 µM | – | 21.7 µM and 33 µM | 11.8 µM and 30.9 µM | 32.6 µM and > 100 µM | – | 32.2 µM and 42.4 µM | 2.83 µM and 11.1 µM | 2.85 µM and 8.35 µM |
| O=C(O)Cc1ccc2[nH]c(O)c(C3=Nc4ccccc4C3=O)c2c1 | – | 92.1 µM | 93 µM | – | > 100 µM | – | 67.3 µM | 98.7 µM | > 100 µM | – | > 100 µM | – | > 100 µM | – | 48.2 µM | – | > 100 µM | – | – |
